Values of other authors as cited in US6495562B1, “Naphthamidine urokinase inhibitors” (Abbott Laboratories, priority 2000, dated 2002).

What was measured:
[1] = system: angiogenesis; conditions: J. Cell Biol. 1991, 115[3 Pt 2], 402a
[2] = system: tumor metastasis; conditions: Anticancer Res. 1988, 8, 1373-1376

N=C(N)NC(=O)c1nc(Cl)c(N)nc1N [Amiloride]
inhibition of angiogenesis in vitro [1]: inhibit
inhibition of tumor metastasis in vivo [2]: inhibit
